Results as given in patent publication US9062041B2 (Bayer Intellectual Property GmbH, priority 2011, dated 2015).

Tests used:
Type in all cases: cell-based
[1] = target: EP2 subtype of the human PGE2 receptor (Homo sapiens, UniProt P43116); assay: cAMP antagonism test on the human EP2 receptor (HTRF cAMP detection); settings: hEP2 receptor, read-out: Antagonism hEP2 IC50
Text: 1. Detection of Antagonism to the Human Prostaglandin E2 (Subtype EP2) Receptor Signal
(§1) The binding of PGE2 to the EP2 subtype of the human PGE2 receptor induces the activation of membrane-located adenylate cyclases and leads to the formation of cAMP. In the presence of the phosphodiesterase inhibitor IBMX, the cAMP accumulated owing to this stimulation and released by cell lysis is used in a competitive detection method. In this test, the cAMP present in the lysate competes with a fluorescence-labelled cAMP (cAMP-d2) for binding to an Eu cryptate-labelled anti-cAMP antibody.
(§2) In the absence of cellular cAMP, a maximal signal is produced, which is attributable to the binding of this cAMP-d2 molecule to the antibody. After excitation of the […] at 337 nm, there is a fluorescence resonance energy transfer (FRET) to the Eu cryptate molecules of the anti-cAMP antibody (labelled therewith), followed by a long-lasting emission signal at 665 nm (and at […]). Both signals are measured in a suitable measurement instrument with a time delay, i.e. after decay of the background fluorescence. Any increase in the low FRET signal caused by prostaglandin E2 administration (measured as well ratio change=emission665 nm/emission620 nm*10000) indicates the action of antagonists.
1.2.1. Test for Antagonism (Data Per Well of a 384-Well Plate):
(§3) To a test plate with the substance solutions already added (0.05 μl; 100% DMSO, concentration range from 0.8 nM-16.5 μM) were added 4 μl of a cAMP-d2/cell suspension (625000 cells/ml). After a 20-minute preincubation at room temperature (RT), 2 μl of a 3×PGE2 solution (1.5 nM, in PBS-IBMX) were added and incubated in the presence of the agonist for a further 60 mins at RT (volume: ˜6 μl). Next the reaction was stopped by addition of 2 μl of lysis buffer and incubated for a further 20 mins at RT before the actual measurement (volume: ˜8 μl).

[2] = target: EP4 subtype of the human PGE2 receptor (Homo sapiens, UniProt P35408); assay: cAMP antagonism test on the human EP4 receptor (HTRF cAMP detection); settings: selectivity towards hEP4, IC50 measured by cAMP antagonism test
Text: 2. Detection of Antagonism to the Human Prostaglandin E2 (Subtype EP4) Receptor Signal
as §1, with “EP4” for “EP2”
as §2, with “cAMP” for “cAMP,”
2.2.1. Test for Antagonism (Data Per Well of a 384-Well Plate):
as §3, with “(312500” for “(625000”, “(0.3” for “(1.5”

[3] = target: T1, human PGD receptor (Homo sapiens, UniProt Q13258); assay: cAMP antagonism test on the human prostaglandin D receptor (HTRF cAMP detection); settings: selectivity towards hDP, IC50 measured by cAMP antagonism test
T1 sequence (Q13258 1-359): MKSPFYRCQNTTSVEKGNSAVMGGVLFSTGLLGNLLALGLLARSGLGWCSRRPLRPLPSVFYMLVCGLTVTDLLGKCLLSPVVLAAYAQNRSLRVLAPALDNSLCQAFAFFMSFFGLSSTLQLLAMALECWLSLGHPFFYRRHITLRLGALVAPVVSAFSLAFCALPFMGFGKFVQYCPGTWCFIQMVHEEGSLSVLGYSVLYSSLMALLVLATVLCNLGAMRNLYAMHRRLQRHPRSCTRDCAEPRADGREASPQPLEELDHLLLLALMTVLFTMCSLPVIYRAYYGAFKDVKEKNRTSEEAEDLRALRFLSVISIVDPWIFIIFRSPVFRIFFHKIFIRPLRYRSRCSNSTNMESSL
Text: 3. Detection of Antagonism to the Human Prostaglandin D Receptor Signal
as §1, with “of prostaglandin D2” for “of PGE2”, “the” for “the EP2 subtype of the”, “human PGD” for “human PGE2”
as §2
3.2.1. Test for Antagonism (Data Per Well of a 384-Well Plate):
as §3, with “3×PGD2” for “3×PGE2”, “(6” for “(1.5”, “30” for “60”

EP4 subtype of the human PGE2 receptor, sequence (P35408 whole entry): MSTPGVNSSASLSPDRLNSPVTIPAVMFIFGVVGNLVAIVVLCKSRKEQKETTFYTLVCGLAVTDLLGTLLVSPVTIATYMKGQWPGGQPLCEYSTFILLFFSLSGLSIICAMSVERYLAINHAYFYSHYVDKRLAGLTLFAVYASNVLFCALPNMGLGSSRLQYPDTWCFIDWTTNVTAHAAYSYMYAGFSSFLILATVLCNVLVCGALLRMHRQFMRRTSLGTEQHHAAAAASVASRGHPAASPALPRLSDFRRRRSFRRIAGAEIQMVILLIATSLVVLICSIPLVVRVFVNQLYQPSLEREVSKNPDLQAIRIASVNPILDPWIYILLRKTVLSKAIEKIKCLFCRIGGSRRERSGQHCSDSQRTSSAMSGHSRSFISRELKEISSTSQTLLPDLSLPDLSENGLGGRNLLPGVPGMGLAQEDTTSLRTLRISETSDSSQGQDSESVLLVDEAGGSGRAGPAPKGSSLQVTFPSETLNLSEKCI
EP2 subtype of the human PGE2 receptor, sequence (P43116 whole entry): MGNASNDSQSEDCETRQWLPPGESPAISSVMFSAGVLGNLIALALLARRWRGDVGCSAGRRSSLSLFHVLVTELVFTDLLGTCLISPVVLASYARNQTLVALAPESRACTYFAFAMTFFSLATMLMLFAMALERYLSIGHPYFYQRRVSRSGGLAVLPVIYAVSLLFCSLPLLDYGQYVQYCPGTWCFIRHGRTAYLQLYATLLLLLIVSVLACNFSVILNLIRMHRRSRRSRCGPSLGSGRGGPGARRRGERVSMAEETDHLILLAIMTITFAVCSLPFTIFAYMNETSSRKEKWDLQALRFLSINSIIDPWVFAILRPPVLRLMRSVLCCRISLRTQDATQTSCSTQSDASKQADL

For COC(C)CNC(=O)c1ccc2nn(CC3CN(C(=O)c4ccc(Oc5ccc(F)cc5)cc4)C3)cc2c1C (racemic) [Example 147, (+/−)-2-({1-[4-(4-fluorophenoxy)benzoyl]azetidin-3-yl}methyl)-N-(2-methoxypropyl)-4-methyl-2H-indazol-5-carboxamide], which IC50 [1] is on record?
Its IC50 is 0.0574 µM.

What about the “Selectivity hEP2/hEP4” value [2] of the same compound?
Its value is “xxx (xxx > 100)”.

And the “Selectivity hEP2/hDP” value [3]?
Its value is “xxx (xxx > 100)”.

Which results are given for Cc1c(C(=O)NCC2COCCO2)ccc2nn(CC3CN(C(=O)c4ccc(Oc5ccc(F)cc5)cc4)C3)cc12 (racemic) [Example 148, (+/−)-N-(1,4-dioxan-2-ylmethyl)-2-({1-[4-(4-fluorophenoxy)benzoyl]azetidin-3-yl}methyl)-4-methyl-2H-indazol-5-carboxamide]?
IC50 [1]: 0.0274 µM; Selectivity hEP2/hEP4 [2]: xxx (xxx > 100); Selectivity hEP2/hDP [3]: xxx (xxx > 100)

For Cc1c(C(=O)NCC(C)OC2CCC2)ccc2nn(CC3CN(C(=O)c4ccc(Cl)cc4)C3)cc12 (racemic) [Example 154, (+/−)-2-{[1-(4-chlorobenzoyl)azetidin-3-yl]methyl}-N-[2-(cyclobutyloxy)propyl]-4-methyl-2H-indazol-5-carboxamide], which IC50 [1] is on record?
Its IC50 is 0.0808 µM.

And the “Selectivity hEP2/hEP4” value [2]?
The value was “xxx (xxx > 100)”.

And the “Selectivity hEP2/hDP” value [3]?
The value was “xxx (xxx > 100)”.

Which results are given for Cc1cc2nn(CC3CN(C(=O)c4ccc(Cl)cc4)C3)cc2cc1C(=O)NCC1CCCCO1 (racemic) [Example 191, (+/−)-2-{[1-(4-chlorobenzoyl)azetidin-3-yl]methyl}-6-methyl-N-(3,4,5,6-tetrahydro-2H-pyran-2-ylmethyl)-2H-indazol-5-carboxamide]?
IC50 [1]: 0.0471 µM; Selectivity hEP2/hEP4 [2]: xxx (xxx > 100); Selectivity hEP2/hDP [3]: xxx (xxx > 100)

Which IC50 [1] does the source give for COC(C)CNC(=O)c1cc2cn(CC3CN(C(=O)c4ccc(Cl)cc4)C3)nc2cc1C (racemic) [Example 192, (+/−)-2-{[1-(4-chlorobenzoyl)azetidin-3-yl]methyl}-N-(2-methoxypropyl)-6-methyl-2H-indazol-5-carboxamide] here?
Its IC50 is 0.206 µM.

And the “Selectivity hEP2/hEP4” value [2]?
Its value is “xx (xx: 10-100)”.

And the “Selectivity hEP2/hDP” value [3]?
The value was “xx (xx: 10-100)”.

For COC(C)CNC(=O)c1cc2cn(CC3CN(C(=O)c4ccc(OC(F)(F)F)cc4)C3)nc2cc1C (racemic) [Example 193, (+/−)-N-(2-methoxypropyl)-6-methyl-2-({1-[4-(trifluoromethoxy)benzoyl]-azetidin-3-yl}methyl)-2H-indazol-5-carboxamide], which IC50 [1] is on record?
Its IC50 is 0.145 µM.

What about the “Selectivity hEP2/hEP4” value [2] of the same compound?
Its value is “xxx (xxx > 100)”.

What about the “Selectivity hEP2/hDP” value [3] of the same compound?
The value was “xxx (xxx > 100)”.

Which results are given for Cc1c(C(=O)NCC2CCCCO2)ccc2nn(CC3CCN(C(=O)c4ccc(Cl)cc4)CC3)cc12 (racemic) [Example 239, (+/−)-2-{[1-(4-chlorobenzoyl)piperidin-4-yl]methyl}-4-methyl-N-(3,4,5,6-tetrahydro-2H-pyran-2-ylmethyl)-2H-indazol-5-carboxamide]?
IC50 [1]: 0.027 µM; Selectivity hEP2/hEP4 [2]: xxx (xxx > 100); Selectivity hEP2/hDP [3]: xxx (xxx > 100)

Cc1c(C(=O)NCC2CCCCO2)ccc2nn(CC3CCN(C(=O)c4ccc(Oc5ccc(C(F)(F)F)cc5)cc4)CC3)cc12 (racemic) [Example 248, (+/−)-4-methyl-N-(3,4,5,6-tetrahydro-2H-pyran-2-ylmethyl)-2-[(1-{4-[4-(trifluoromethyl)phenoxy]benzoyl}piperidin-4-yl)methyl]-2H-indazol-5-carboxamide] was tested. Which IC50 [1] did it give?
The IC50 was 0.0147 µM.

What about the “Selectivity hEP2/hEP4” value [2] of the same compound?
The value was “xxx (xxx > 100)”.

What about the “Selectivity hEP2/hDP” value [3] of the same compound?
The value was “xxx (xxx > 100)”.

How did the IC50 [1] turn out when Cc1c(C(=O)NCC2COCCO2)ccc2nn(CC3CCN(C(=O)c4ccc(Oc5ccc(C(F)(F)F)cc5)cc4)CC3)cc12 (racemic) [Example 249, (+/−)-N-(1,4-dioxan-2-ylmethyl)-4-methyl-2-[(1-{4-[4-(trifluoromethyl)phenoxy]benzoyl}piperidin-4-yl)methyl]-2H-indazol-5-carboxamide] was run?
Its IC50 is 0.0112 µM.

And the “Selectivity hEP2/hEP4” value [2]?
Its value is “xxx (xxx > 100)”.

And the “Selectivity hEP2/hDP” value [3]?
The value was “xxx (xxx > 100)”.

Which results are given for Cc1c(C(=O)NCC2COCCO2)ccc2nn(CC3CCN(C(=O)c4ccc(-c5ccc(F)cc5)cc4)CC3)cc12 (racemic) [Example 411, (+/−)-N-(1,4-dioxan-2-ylmethyl)-2-({1-[(4′-fluorobiphenyl-4-yl)carbonyl]-piperidin-4-yl}methyl)-4-methyl-2H-indazol-5-carboxamide]?
IC50 [1]: 0.0165 µM; Selectivity hEP2/hEP4 [2]: xxx (xxx > 100); Selectivity hEP2/hDP [3]: xxx (xxx > 100)

For Cc1c(C(=O)NCC2CCO2)ccc2nn(CC3CCN(C(=O)c4ccc(Cl)cc4)CC3)cc12 (racemic) [Example 412, (+/−)-2-{[1-(4-chlorobenzoyl)piperidin-4-yl]methyl}-4-methyl-N-(oxetan-2-ylmethyl)-2H-indazol-5-carboxamide], which IC50 [1] is on record?
Its IC50 is 0.0635 µM.

What about the “Selectivity hEP2/hEP4” value [2] of the same compound?
Its value is “xxx (xxx > 100)”.

What about the “Selectivity hEP2/hDP” value [3] of the same compound?
Its value is “xxx (xxx > 100)”.

For Cc1c(C(=O)NCC2COCCO2)ccc2nn(CC3CCN(C(=O)c4ccc(Cl)cc4)CC3)cc12 (racemic) [Example 413, (+/−)-2-{[1-(4-chlorobenzoyl)piperidin-4-yl]methyl}-N-(1,4-dioxan-2-ylmethyl)-4-methyl-2H-indazol-5-carboxamide], which IC50 [1] is on record?
The IC50 was 0.0378 µM.

What about the “Selectivity hEP2/hEP4” value [2] of the same compound?
Its value is “xxx (xxx > 100)”.

What about the “Selectivity hEP2/hDP” value [3] of the same compound?
The value was “xxx (xxx > 100)”.

For COC(C)CNC(=O)c1ccc2nn(CC3CN(C(=O)c4ccc(Cl)cc4)C3)cc2c1C (single isomer, unassigned) [Example 139, (R or S)-2-{[1-(4-chlorobenzoyl)azetidin-3-yl]methyl}-N-(2-methoxypropyl)-4-methyl-2H-indazol-5-carboxamide], which IC50 [1] is on record?
The IC50 was 0.419 µM.

And the “Selectivity hEP2/hEP4” value [2]?
Its value is “xx (xx: 10-100)”.

What about the “Selectivity hEP2/hDP” value [3] of the same compound?
Its value is “xx (xx: 10-100)”.
